What was measured:
[1] = tested on: Human hepatic stellate cells; test: Active human hepatic stellate cell dedifferentiation test (decrease in ACTA2 mRNA expression); type: cell-based; conditions: 3 days differentiation then 2 days with compound, read-out: IC50 (rate of decrease in ACTA2 mRNA expression)
Procedure: Human hepatic stellate cells (manufactured by ScienCell Research Laboratories, Inc., 5300) were suspended in DMEM containing 10% FBS and […] penicillin/streptomycin/amphotericin B to prepare a cell suspension of 0.5×10^5 cells/mL, which was regarded as cells at the start of differentiation. The cells at the start of differentiation were dispensed at 1 mL/well to a 12-well plate and cultured, for differentiation, for 3 days in a 5% CO2 incubator (37° C.).
The culture solution in each well was removed, and DMEM containing 10% FBS and 1% penicillin/streptomycin/amphotericin B supplemented with a test compound dissolved in DMSO (final DMSO concentration: 0.1%) was added at 1 mL/well. The resultant was further cultured for 2 days in a 5% CO2 incubator (37° C.). In Test Example 4, the same reagents as in Test Example 1 were used unless otherwise specified.
RNA in the cultured cells was extracted using NucleoSpin® RNA (manufactured by Takara Bio Inc., U0955C), and cDNA was further synthesized from the extracted RNA using Prime Script™ RT reagent Kit with gDNA Eraser (manufactured by Takara Bio Inc., RR047A). Real time PCR was performed using the synthesized cDNA, various primers and TB Green® Premix Ex Taq™ II (manufactured by Takara Bio Inc., RR820A) and using PCR Thermal Cycler Dice Real Time (manufactured by Takara Bio Inc., System Code TP910, Model Code TP900). The primers used were actin alpha 2, smooth muscle (ACTA2) primer (manufactured by Takara Bio Inc., HA136273) and glyceraldehyde-3-phosphate dehydrogenase (GAPDH) primer (manufactured by Takara Bio Inc., HA067812).
The amplification curve of PCR was analyzed by the comparative Ct method. The expression level of ACTA2 mRNA was corrected with the expression level of GAPDH mRNA. An ACTA2 mRNA expression level when DMSO was added instead of the test compound was defined as 100%, and an ACTA2 mRNA expression level in the cells at the start of differentiation was defined as 0%. The rate of decrease in ACTA2 mRNA expression by the test compound was calculated according to the following expression.
Rate of decrease in ACTA2 mRNA expression (%)=[1−{(ACTA2 mRNA expression level in the case of adding the test compound)−(ACTA2 mRNA expression level in the cells at the start of differentiation)}/{(ACTA2 mRNA expression level in the case of adding DMSO)−(ACTA2 mRNA expression level in the cells at the start of differentiation)}]×100
An IC50 value was calculated from the rate of decrease in ACTA2 mRNA expression by the test compound. A: IC50<10 nM, B: 10 nM≤IC50<50 nM, C: 50 nM≤IC50<100 nM, or D: IC50≥100 nM.

αvβ1 = biological target: T1, αvβ1 (UniProt G3HZ55+P06756); test: αvβ1 cell adhesion inhibition test (αv-transfected CHO cells on human fibronectin); type: cell-based; conditions: human fibronectin coating, 1 mM MnCl2, 1 hour, read-out: IC50 (rate of inhibition of cell adhesion, αvβ1)
T1 construct: expressed in transfected cells; host or cells: CHO cells deficient in α5 gene, transfected with αv gene
T1 sequence (P06756 31-889 limits assumed): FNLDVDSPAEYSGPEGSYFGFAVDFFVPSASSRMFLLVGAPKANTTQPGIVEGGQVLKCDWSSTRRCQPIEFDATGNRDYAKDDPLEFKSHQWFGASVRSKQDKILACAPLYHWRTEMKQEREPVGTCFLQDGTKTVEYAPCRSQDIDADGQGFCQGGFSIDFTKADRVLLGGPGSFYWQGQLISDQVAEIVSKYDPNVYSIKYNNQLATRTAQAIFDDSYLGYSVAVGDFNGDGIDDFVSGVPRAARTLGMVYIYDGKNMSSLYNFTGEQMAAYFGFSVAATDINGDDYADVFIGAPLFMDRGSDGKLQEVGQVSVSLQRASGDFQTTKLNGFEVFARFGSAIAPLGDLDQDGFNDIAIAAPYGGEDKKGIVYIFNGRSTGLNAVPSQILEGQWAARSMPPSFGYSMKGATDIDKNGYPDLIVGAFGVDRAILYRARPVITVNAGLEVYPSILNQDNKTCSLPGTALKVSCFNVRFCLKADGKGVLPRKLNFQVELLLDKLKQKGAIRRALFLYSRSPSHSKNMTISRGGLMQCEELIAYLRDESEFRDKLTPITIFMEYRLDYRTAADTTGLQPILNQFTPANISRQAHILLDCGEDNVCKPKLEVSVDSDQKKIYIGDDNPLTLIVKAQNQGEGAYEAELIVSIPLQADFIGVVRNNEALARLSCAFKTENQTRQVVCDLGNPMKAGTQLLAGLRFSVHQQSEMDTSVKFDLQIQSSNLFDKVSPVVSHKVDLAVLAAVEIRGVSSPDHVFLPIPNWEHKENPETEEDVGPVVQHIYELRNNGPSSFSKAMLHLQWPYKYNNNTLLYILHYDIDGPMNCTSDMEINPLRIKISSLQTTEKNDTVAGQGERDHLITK
T1 sequence (P06756 891-1048 limits assumed): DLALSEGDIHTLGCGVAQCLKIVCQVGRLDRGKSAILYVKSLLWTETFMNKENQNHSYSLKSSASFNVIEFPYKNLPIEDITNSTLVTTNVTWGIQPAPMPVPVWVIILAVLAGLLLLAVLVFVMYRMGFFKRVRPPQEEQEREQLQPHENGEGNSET
T1 sequence (G3HZ55 21-798): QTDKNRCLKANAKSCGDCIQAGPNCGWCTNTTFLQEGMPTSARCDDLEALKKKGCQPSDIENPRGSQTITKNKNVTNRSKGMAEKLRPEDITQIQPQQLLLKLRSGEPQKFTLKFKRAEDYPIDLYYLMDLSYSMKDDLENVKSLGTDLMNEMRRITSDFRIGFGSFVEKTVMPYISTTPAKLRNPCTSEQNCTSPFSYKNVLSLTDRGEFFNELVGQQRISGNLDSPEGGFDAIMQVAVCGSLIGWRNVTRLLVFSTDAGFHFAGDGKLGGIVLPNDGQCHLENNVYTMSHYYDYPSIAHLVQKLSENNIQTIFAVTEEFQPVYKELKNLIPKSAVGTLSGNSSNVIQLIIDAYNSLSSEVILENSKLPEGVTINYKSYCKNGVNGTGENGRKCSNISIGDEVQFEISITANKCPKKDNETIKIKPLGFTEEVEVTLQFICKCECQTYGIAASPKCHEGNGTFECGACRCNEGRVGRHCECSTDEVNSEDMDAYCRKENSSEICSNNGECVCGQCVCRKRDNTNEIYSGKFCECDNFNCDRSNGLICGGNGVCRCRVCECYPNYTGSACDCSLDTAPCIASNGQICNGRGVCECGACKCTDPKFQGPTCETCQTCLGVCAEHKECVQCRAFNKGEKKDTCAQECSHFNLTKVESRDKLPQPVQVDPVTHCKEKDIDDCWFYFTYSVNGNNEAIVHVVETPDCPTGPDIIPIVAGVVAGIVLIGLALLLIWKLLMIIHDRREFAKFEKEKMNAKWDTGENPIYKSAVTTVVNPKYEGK
Procedure: Test Example 1 was performed by partially modifying the method of Reed et al. (Sci Transl Med., 7 (288), 288ra79, 2015).
Human fibronectin (manufactured by Sigma-Aldrich Co. LLC, F0895) was prepared at 1.25 μg/mL with phosphate buffered saline (PBS), dispensed at 100 μL/well to a 96-well plate, and left standing overnight. The plate was washed with Hanks' balanced salt solution (HBSS), then subjected to blocking treatment with Dulbecco's modified Eagle medium (DMEM) containing 1% bovine serum-derived albumin (BSA) (FUJIFILM Wako Pure Chemical Corp., for cell culture, 017-22231), and used as a coated plate in the adhesion test.
αv-transfected cells (CHO cells deficient in α5 gene and transfected with αv gene) cultured in Ham's F-12 medium (FUJIFILM Wako Pure Chemical Corp., 087-08335) containing 10% fetal bovine serum (FBS), 1% penicillin/streptomycin/amphotericin B (manufactured by Thermo Fisher Scientific, Inc., 15240), 1 mM GlutaMAX Supplement (manufactured by Thermo Fisher Scientific, Inc., 35050), and 400 μg/mL hygromycin B (FUJIFILM Wako Pure Chemical Corp., 080-07683) were recovered and suspended in DMEM containing 1 mM MnCl2 (manufactured by Sigma-Aldrich Co. LLC, M1787) to prepare a cell suspension. A test compound dissolved in DMSO was added thereto.
The cell suspension of 1×10^6 cells/mL containing the test compound was added at 100 μL/well to the coated plate and left standing for 1 hour in a 5% CO2 incubator (37° C.). One hour later, the supernatant was removed, and the plate was washed with HBSS. The cells that adhered to each well in the plate were stained with crystal violet, and the cells were lysed, followed by absorbance measurement. Inhibition without substrate coating was defined as 100% inhibition, and inhibition when DMSO was added instead of the test compound was defined as 0% inhibition. The rate of inhibition of cell adhesion by the test compound was calculated according to the following expression.
Rate of inhibition of cell adhesion (%)=[1−{(Absorbance in the case of adding the test compound)−(Absorbance without substrate coating)}/{(Absorbance in the case of adding DMSO)−(Absorbance without substrate coating)}]×100
An IC50 value was calculated from the rate of inhibition of cell adhesion by the test compound. A: IC50<3 nM, B: 3 nM≤IC50<10 nM, C: 10 nM≤IC50<30 nM, D: 30 nM≤IC50<100 nM, or E: IC50≥100 nM.

O=C(O)C[C@H](NC(=O)CNC(=O)c1cc(NC2=NCC(F)CN2)c2cn[nH]c2c1)c1cc(Cl)cc(I)c1 (stereo partly drawn) [Example 21-(b), (3S)-3-(3-chloro-5-iodophenyl)-3-(2-(4-((5-fluoro-1,4,5,6-tetrahydropyrimidin-2-yl)amino)-1H-indazole-6-carboxamido)acetamido)propanoic acid]
IC50 [1]: 10 to 50 nM
IC50 (αvβ1): < 3 nM

O=C(O)C[C@H](NC(=O)CNC(=O)c1cc(NC2=NCC(F)CN2)c2cn[nH]c2c1)c1cc(OC(F)F)cc(C(F)(F)F)c1 (stereo partly drawn) [Example 24-(b), (3S)-3-(3-(difluoromethoxy)-5-(trifluoromethyl)phenyl)-3-(2-(4-((5-fluoro-1,4,5,6-tetrahydropyrimidin-2-yl)amino)-1H-indazole-6-carboxamido)acetamido)propanoic acid]
IC50 [1]: < 10 nM
IC50 (αvβ1): < 3 nM

O=C(O)C[C@H](NC(=O)CNC(=O)c1cc(NC2=NCC(F)CN2)c2cn[nH]c2c1)c1cc(Cl)cc(OC(F)F)c1 (stereo partly drawn) [Example 25-(b), (3S)-3-(3-chloro-5-(difluoromethoxy)phenyl)-3-(2-(4-((5-fluoro-1,4,5,6-tetrahydropyrimidin-2-yl)amino)-1H-indazole-6-carboxamido)acetamido)propanoic acid]
IC50 [1]: < 10 nM
IC50 (αvβ1): < 3 nM

O=C(O)C[C@H](NC(=O)CNC(=O)c1cc(NC2=NCC(F)CN2)c2cn[nH]c2c1)c1cc(Br)cc(OC(F)F)c1 (stereo partly drawn) [Example 26-(b), (3S)-3-(3-bromo-5-(difluoromethoxy)phenyl)-3-(2-(4-((5-fluoro-1,4,5,6-tetrahydropyrimidin-2-yl)amino)-1H-indazole-6-carboxamido)acetamido)propanoic acid]
IC50 [1]: < 10 nM
IC50 (αvβ1): < 3 nM

O=C(O)C[C@H](NC(=O)CNC(=O)c1cc(NC2=NCC(F)CN2)c2cn[nH]c2c1)c1cc(OC(F)F)ccc1F (stereo partly drawn) [Example 28-(b), (3S)-3-(5-(difluoromethoxy)-2-fluorophenyl)-3-(2-(4-((5-fluoro-1,4,5,6-tetrahydropyrimidin-2-yl)amino)-1H-indazole-6-carboxamido)acetamido)propanoic acid]
IC50 [1]: 10 to 50 nM
IC50 (αvβ1): < 3 nM

O=C(O)C[C@H](NC(=O)CNC(=O)c1cc(NC2=NCC(F)CN2)c2cn[nH]c2c1)c1cc(OC(F)F)cc(OC(F)F)c1 (stereo partly drawn) [Example 30-(b), (3S)-3-(3,5-bis(difluoromethoxy)phenyl)-3-(2-(4-((5-fluoro-1,4,5,6-tetrahydropyrimidin-2-yl)amino)-1H-indazole-6-carboxamido)acetamido)propanoic acid]
IC50 [1]: < 10 nM
IC50 (αvβ1): < 3 nM

O=C(O)C[C@H](NC(=O)CNC(=O)c1cc(NC2=NCC(F)CN2)c2cn[nH]c2c1)c1cc(Cl)cc(OC(F)(F)F)c1 (stereo partly drawn) [Example 31-(b), (3S)-3-(3-chloro-5-(trifluoromethoxy)phenyl)-3-(2-(4-((5-fluoro-1,4,5,6-tetrahydropyrimidin-2-yl)amino)-1H-indazole-6-carboxamido)acetamido)propanoic acid]
IC50 [1]: < 10 nM
IC50 (αvβ1): 3 to 10 nM

O=C(O)C[C@H](NC(=O)CNC(=O)c1cc(NC2=NCC(F)CN2)c2cn[nH]c2c1)c1cc(Br)cc(OC(F)(F)F)c1 (stereo partly drawn) [Example 32-(b), (3S)-3-(3-bromo-5-(trifluoromethoxy)phenyl)-3-(2-(4-((5-fluoro-1,4,5,6-tetrahydropyrimidin-2-yl)amino)-1H-indazole-6-carboxamido)acetamido)propanoic acid]
IC50 [1]: 10 to 50 nM
IC50 (αvβ1): < 3 nM

O=C(O)C[C@H](NC(=O)CNC(=O)c1cc(NC2=NCC(F)CN2)c2cn[nH]c2c1)c1cc(OC(F)(F)F)ccc1F (stereo partly drawn) [Example 33-(b), (3S)-3-(2-(4-((5-fluoro-1,4,5,6-tetrahydropyrimidin-2-yl)amino)-1H-indazole-6-carboxamido)acetamido)-3-(2-fluoro-5-(trifluoromethoxy)phenyl)propanoic acid]
IC50 [1]: 10 to 50 nM
IC50 (αvβ1): < 3 nM

O=C(O)C[C@H](NC(=O)CNC(=O)c1cc(NC2=NCC(F)CN2)c2cn[nH]c2c1)c1ccc(F)c(OC(F)(F)F)c1 (stereo partly drawn) [Example 34-(b), (3S)-3-(2-(4-((5-fluoro-1,4,5,6-tetrahydropyrimidin-2-yl)amino)-1H-indazole-6-carboxamido)acetamido)-3-(4-fluoro-3-(trifluoromethoxy)phenyl)propanoic acid]
IC50 [1]: 10 to 50 nM
IC50 (αvβ1): < 3 nM

O=C(O)C[C@H](NC(=O)CNC(=O)c1cc(NC2=NCC(F)CN2)c2cn[nH]c2c1)c1cccc(C(F)(F)F)c1 (stereo partly drawn) [Example 35-(b), (3S)-3-(2-(4-((5-fluoro-1,4,5,6-tetrahydropyrimidin-2-yl)amino)-1H-indazole-6-carboxamido)acetamido)-3-(3-(trifluoromethyl)phenyl)propanoic acid]
IC50 [1]: < 10 nM
IC50 (αvβ1): 3 to 10 nM

O=C(O)C[C@H](NC(=O)CNC(=O)c1cc(NC2=NCC(F)CN2)c2cn[nH]c2c1)c1cccc(OC(F)(F)F)c1 (stereo partly drawn) [Example 36-(b), (3S)-3-(2-(4-((5-fluoro-1,4,5,6-tetrahydropyrimidin-2-yl)amino)-1H-indazole-6-carboxamido)acetamido)-3-(3-(trifluoromethoxy)phenyl)propanoic acid]
IC50 [1]: 10 to 50 nM
IC50 (αvβ1): 3 to 10 nM

O=C(O)C[C@H](NC(=O)CNC(=O)c1cc(NC2=NCC(F)CN2)c2cn[nH]c2c1)c1cccc(OC(F)F)c1 (stereo partly drawn) [Example 37-(b), (3S)-3-(3-(difluoromethoxy)phenyl)-3-(2-(4-((5-fluoro-1,4,5,6-tetrahydropyrimidin-2-yl)amino)-1H-indazole-6-carboxamido)acetamido)propanoic acid]
IC50 [1]: 10 to 50 nM
IC50 (αvβ1): 3 to 10 nM

O=C(O)C[C@H](NC(=O)CNC(=O)c1cc(NC2=NCC(F)CN2)c2cn[nH]c2c1)c1cccc(C(F)F)c1 (stereo partly drawn) [Example 38-(b), (3S)-3-(3-(difluoromethyl)phenyl)-3-(2-(4-((5-fluoro-1,4,5,6-tetrahydropyrimidin-2-yl)amino)-1H-indazole-6-carboxamido)acetamido)propanoic acid]
IC50 [1]: < 10 nM
IC50 (αvβ1): < 3 nM

O=C(O)C[C@H](NC(=O)CNC(=O)c1cc(NC2=NCC(F)CN2)c2cn[nH]c2c1)c1cccc(C2CC2)c1 (stereo partly drawn) [Example 39-(b), (3S)-3-(3-cyclopropylphenyl)-3-(2-(4-((5-fluoro-1,4,5,6-tetrahydropyrimidin-2-yl)amino)-1H-indazole-6-carboxamido)acetamido)propanoic acid]
IC50 [1]: < 10 nM
IC50 (αvβ1): < 3 nM

Reference: patent US20230192661A1, “1, 4, 5, 6-TETRAHYDROPYRIMIDINE-2-AMINE DERIVATIVE” (UBE Corporation, priority 2020, published 2023)
